Patent US6200966A, “Compositions for inhibiting airway wall inflammation” (Amrad Operations Pty. Ltd., priority 1996, dated 2001)
“Also recorded” adds a separate entry of the source.

Assays:
[1] = system: human cultured airway smooth muscle cells; assay: DNA synthesis: [3H]-thymidine incorporation; type: cell-based
Description: (§1) Human bronchial airway smooth muscle was obtained from macroscopically normal lung resection specimens from lung transplant donors or recipients provided by the Alfred Hospital (Melbourne). Cultures were prepared as previously described in detail (Tomlinson et al., 1994). Briefly, the tissue was partially digested in Dulbecco's Modified Eagle's Medium (DMEM), [supplemented with 2 mM L-glutamine, 100 μg/ml streptomycin, 100 U/ml penicillin-G, 2 μg/ml amphotericin B, and 0.25% w/v bovine serum albumin (BSA)] containing 3 mg/ml collagenase for 30 minutes at 37° C. and approximately 0.5 g smooth muscle was further digested by a 2 hour incubation in 0.5 mg/ml elastase, followed by an 18 hour incubation in collagenase (3 mg/ml) at 37° C. Cell suspensions ere centrifuged (10 min, 100×g, 25° C.), washed three times in supplemented DMEM, resuspended in 25 ml DMEM containing 10% (v/v) heat-inactivated foetal calf serum (FCS), seeded into 25 cm^2 Falcon culture flasks and incubated (37° C., 5% CO2) for 7 to 10 days until monolayer confluence was reached. Cells were then harvested weekly by 10 min exposure to 0.5% trypsin, 1 mM EDTA and passaged at a 1:3 split ratio into 75 cm^2 Falcon culture flaskes. Cells at passage numbers 3 to 15 were used for experiments.
(§2) Cells were subcultured into 24-well plates at a 1:3 ratio and allowed to grow to monolayer confluency over a 72-96 hour period in an atmosphere of 5% CO2 in air at 37° C. The serum-containing medium was replaced with serum-free DMEM for a 24 hour period to produce growth arrest. In some experiments, the cells were pretreated with 2-methoxyestradiol 30 min before the addition of mitogen. The stimulant (mitogen) was added to the appropriate wells together with a supplement containing insulin, transferrin, and selenium (Monomed A, 1% v/v). Monomed A was added to provide progression factors which are essential for the mitogenic activity of growth factors such as thrombin, epidermal growth factor (EGF) and basic fibroblast growth factor (bFGF) (Stewart et al., 1995a). Mitogens and inhibitors were left in contact with cells from the time of addition until the end of the experiment, unless indicated otherwise. Cells were incubated for 24 hours (37° C., 5% CO2) before being pulsed with [^3 H]-thymidine (1 μCi/ml for four hours) to measure incorporation of radiolabel into newly synthesized DNA, according to out previous study (Stewart et al., 1995). Incorporation of radioactivity was determined by filtration at the end of the pulse-labelling period. The medium containing the radioactivity was aspirated and the cells were lysed by addition of 200 μl of 0.1M NaOH. The DNA was immobilised by filtration in a binding harvester (Packard Filtermate 196) on glass fibre filters (Packard, standard), which were then washed with 3×3 ml volumes of distilled water and a single 1 ml volume of 100% ethanol. The dried filters were counted in a Packard Topcount liquid scintillation counter. Protein synthesis rates were determined in experiments of analogous design to those described above, but [^3 H]-leucine replaced [^3 H]-thymidine in the pulsing incubation of 4 hours. Furthermore, in experiments to determine the effects of mitogens and 2-methoxyestradiol on the rate of protein synthesis, incubations with mitogen were carried out for a period of 48 hours. The longer duration of these experiments was required to allow sufficient time for cell division to occur.
(§3) Each treatment in an individual experiment was carried out in quadruplicate for DNA and protein synthesis experiments. Each experiment was performed in at least three different cultures obtained from three different individuals. For cell counting, single incubations were carried out in three cultures. Results are presented as grouped data from multiple cultures and are expressed as mean ±S. E. of n cultures. The degree of increment was calculated by dividing the response of treated wells by that of the control wells on the same 24-well plate.

[2] = system: airway smooth muscle cells; assay: Morphological changes (cell rounding); type: cell-based, human
[3] = system: cultured airway smooth muscle; conditions: cited from earlier work; for mitogenic activity on airway smooth muscle: various species
[4] = system: human cultured airway smooth muscle cells; assay: Protein synthesis: [3H]-leucine incorporation; type: cell-based; conditions: for [3H]-leucine incorporation: Table 5, unstimulated cells, mean
Description: as §1, §2, §3

[5] = system: human cultured airway smooth muscle cells; assay: Protein synthesis: [3H]-leucine incorporation; type: cell-based; conditions: Table 5, unstimulated cells, mean
[6] = system: endothelial cells and fibroblasts; conditions: actively proliferating or non-quiescent; cited from earlier work

For CC#C[C@]1(O)CC[C@H]2[C@@H]3CCC4=CC(=O)CCC4=C3[C@@H](c3ccc(N(C)C)cc3)C[C@@]21C [RU 486, reference compound], the “effect on inhibition of DNA synthesis by 2-methoxyestradiol” value ([1]; RU 486 (1 μM), 2-methoxyestradiol 3 μM, FCS 1%) was “no effect” and the “shape changes in response to colchicine or 2-methoxyestradiol” value ([2]; RU 486 as antagonist) was “reduced the shape changes”.

In the case of “thrombin: thrombin (bovine plasma), mitogen”, the “DNA synthesis ([3H]-thymidine incorporation) over unstimulated” value (“DNA synthesis … over unstimulated” for short) ([1]; 0.3 U/ml thrombin) is listed as 8.4±3.1 fold and the “mitogenic activity on airway smooth muscle” value (“mitogenic activity” below) [3] is listed as “effective growth factor”.

In the case of endothelin-1, the “mitogenic activity” value [3] is listed as “only weakly active”.

In the case of COc1cc2c(c(OC)c1OC)-c1ccc(OC)c(=O)cc1[C@@H](NC(C)=O)CC2 [colchicine, reference compound], the shape changes ([2]; colchicine 0.1-10 μM) is reported as “similar”.

With C[C@]12CC[C@@H]3c4cc(O)c(O)cc4CC[C@H]3[C@@H]1CC[C@@H]2O [2-hydroxyestradiol, 1,3,5[10]-estratriene-2,3,17β-triol] the “DNA synthesis in response to FCS (1%), 3 and 10 μM” value ([1]; FCS 1%) was “inhibited DNA synthesis”, the “FCS (1%)-stimulated DNA synthesis, lower concentrations” value ([1]; FCS 1%) was “increased DNA synthesis” and the “[3H]-leucine incorporation” value ([4]; concentration 0.3) was 107 % control. For the same molecule, the “[3H]-leucine incorporation” value ([4]; concentration 1.0) was 94 % control, the “[3H]-leucine incorporation” value ([4]; concentration 3.0) was 56 % control and the “[3H]-leucine incorporation” value ([5]; concentration 10.0) was 51 % control.

For C[C@]12CC[C@@H]3c4ccc(O)cc4CC[C@H]3[C@@H]1CC[C@@H]2O [17β-estradiol, 1,3,5[10]-estratriene-3, 17β-diol, reference compound], the “FCS (1%)-stimulated DNA synthesis, 10 μM” value ([1]; FCS 1%, 10 μM) was “inhibition was observed at 10 μM”, the “DNA synthesis in response to FCS (1%), 3 and 10 μM” value ([1]; FCS 1%) was “inhibited DNA synthesis” and the “FCS (1%)-stimulated DNA synthesis, lower concentrations” value ([1]; FCS 1%) was “enhanced; also recorded: increased DNA synthesis”. For the same molecule, the “[3H]-leucine incorporation” value ([4]; concentration 0.3) was 103 % control, the “[3H]-leucine incorporation” value ([4]; concentration 3.0) was 87 % control and the “[3H]-leucine incorporation” value ([5]; concentration 1.0) was 89 % control. The “[3H]-leucine incorporation” value ([5]; concentration 10.0) was 100 % control.

For NCCc1c[nH]cn1 [histamine], the “mitogenic activity” value [3] is given as “completely inactive”.

For C[C@@H]1C[C@H]2[C@@H]3CCC4=CC(=O)C=C[C@]4(C)[C@@]3(F)[C@@H](O)C[C@]2(C)[C@@]1(O)C(=O)CO [dexamethasone], the “effect on proliferation of cultured airway smooth muscle” value [3] is listed as “anti-proliferative effect”.

For EGF: epidermal growth factor, the “DNA synthesis … over unstimulated” value ([1]; 3 nM EGF, fold series) is given as 4.5±0.7 and the “mitogenic activity” value [3] is given as “most effective proliferative agents”.

In the case of bFGF: human recombinant basic FGF, the “DNA synthesis … over unstimulated” value ([1]; 300 pM bFGF, fold series) is listed as 22.5±5.3 and the “mitogenic activity” value [3] is listed as “most effective proliferative agents”.

In the case of CCCCC[C@H](O)/C=C/[C@@H]1[C@@H](C/C=C\CCCC(=O)O)[C@H]2CO[C@@H]1C2 [U46619], the “mitogenic activity” value [3] is listed as “only weakly active”.

For NCCc1c[nH]c2ccc(O)cc12 [5HT, Serotonin, reference compound], the “incorporation of [3H]-thymidine by serotonin” value ([1]; 5HT 0.1 nM up to 10 μM) was “no effect” and the “incorporation of [3H]-leucine by serotonin” value ([4]; 5HT 10 nM) was “increased incorporation of [^3 H]-leucine”.

In the case of heparin [reference compound], the “effect on proliferation of cultured airway smooth muscle” value [3] is listed as “inhibit proliferation of airway smooth muscle cells” and the “proliferation of endothelial cells and fibroblasts” value [6] is listed as “enhance endothelial cell proliferation”.

In the case of COc1cc2c(cc1O)CC[C@@H]1[C@@H]2CC[C@]2(C)C(=O)CC[C@@H]12 [2-methoxyestrone], the “concentration-response of enhancement of thrombin-stimulated DNA synthesis” value ([1]; thrombin) is reported as “bell-shaped concentration-response curve”, the “enhancement of thrombin-stimulated DNA synthesis, 10 μM” value ([1]; thrombin 0.3 U/ml, 10 μM) is reported as “level of enhancement declined at 10 μM” and the “thrombin-stimulated DNA synthesis (analogues)” value ([1]; thrombin 0.3 U/ml, up to 3 μM) is reported as “enhanced thrombin-stimulated DNA synthesis”.
